Test results: US7604978B2, “Inhibition of biofilm formation” (Sequoia Sciences, Inc., priority 2004, dated 2009)

Assays:
E. coli JM109 = assay: Biofilm inhibition by asiatic acid; assay type: cell-based; conditions: Escherichia coli, JM 109, E. coli JM109, MC9 glucose media
Description: Inhibition of biofilm formation by E. coli K12 [R1drd19], P. aeruginosa PAO1, and V harveyi BB120 by the addition of 10 μg/mL ursolic acid. For E. coli K12 [R1drd19], data were collected 16 hours after addition of ursolic acid to a 24 hour biofilm in LB medium; for P. aeruginosa PAO1, data were collected 18 hours after addition of ursolic acid with inoculation in LB medium plus 1% sodium citrate; and for V. harveyi BB120, data were collected 18 hours after addition of ursolic acid with inoculation in M9 medium. All biofilm mass readings at OD540 were normalized based on the reading of wild type without ursolic acid which was normalized to 1. One standard deviation is shown.
Example 1 was repeated, except asiatic acid was added with inoculation in E. coli JM109 in MC9 glucose media.

E. coli JM109 genes = assay: DNA microarray, genes induced by asiatic acid; assay type: cell-based; conditions: M9C glucose media
Description: The same amount of ethanol was supplemented to eliminate solvent effects. The cultures were grown to an OD600 of 0.9. The cells were centrifuged in a microcentrifuge for 15 seconds at 20,000×g in mini bead beater tubes (Biospec, Bartlesville, Okla.) that were cooled to -80° C. before sampling. The cell pellets were flash frozen in a dry ice-ethanol bath and stored at -80° C. until RNA isolation. To lyse the cells, 1.0 mL RLT buffer (Qiagen, Inc., Valencia, Calif.) and 0.2 mL 0.1 mm zirconia/silica beads (Biospec) were added to the frozen bead beater tubes containing the cell pellets. The tubes were closed tightly and beat for 30 seconds at the maximum speed in a mini bead beater (cat. no. 3110BX, Biospec). The total RNA was isolated by following the protocol of the RNeasy Mini Kit (Qiagen) including an on-column DNase digestion with RNase-free DNase I (Qiagen). OD260 was used to quantify the RNA yield. OD260/OD280 and […]/16S rRNA were measured using a 2100 Bioanalyzer (Agilent Technologies, Palo Alto, Calif.) to check the purity and integrity of RNA (RNeasy Mini handbook, Qiagen). The E. coli DNA microarrays were prepared as described previously by Wei, Y. et al (Journal of Bacteriology, 2001, 183 (2) p. 545-556). […] The double-strand PCR products were denatured in 50% dimethyl sulfoxide and spotted onto aminosilane slides (Full Moon Biosystems, Sunnyvale, Calif.) as probes to hybridize with the mRNA-derived cDNA samples. It has been shown that each array can detect 4228 of the 4290 E. coli ORFs. Each gene has two spots per slide. Briefly, the total RNA from the E. coli K12 samples grown with and without ursolic acid was first converted into labeled cDNA. […] The Cy3-labeled sample without ursolic acid and the Cy5-labeled ursolic acid sample (with 10 or 30 μg/mL ursolic acid) were hybridized on the first slide. Similarly, the Cy5-labeled sample without ursolic acid and the Cy3-labeled ursolic acid sample were hybridized on the second slide. Since each gene has two spots on a slide, the two hybridizations generated eight data points for each gene (four points for the sample without ursolic acid and four points for the ursolic acid sample). The microarray experiments with dye-swapping were repeated for both concentrations of ursolic acid. […] The arrays were rinsed with double-distilled water and were spun dry by centrifugation. Labeled cDNA (6 μg) was concentrated to 10 μl of total volume and was mixed with 10 μl of 4×cDNA hybridization solution (Full Moon Biosystems) and 20 μl of formamide (EM Science, Gibbstown, N.J.). The hybridization mix was heated to 95° C. for 2 min and was added to the DNA microarrays; each array was covered with a coverslip (Corning, Big Flats, N.Y.) and was incubated overnight at 37° C. for hybridization. When the hybridization was finished, the coverslips were removed in 1×SSC-0.1% SDS at room temperature, and the arrays were washed once for 5 min in 1×SSC-0.1% SDS at 40° C., twice for 10 min in 0.1×SSC-0.1% SDS at 40° C., and twice for 1 min in 0.1×SSC at 40° C. The arrays were quickly rinsed by dipping in room-temperature double-distilled water and were then spun dry by centrifugation. The hybridized slides were scanned with the Generation III Array Scanner (Molecular Dynamics Corp.). Readings at 570 and 670 nm was used to quantify the probes labeled with Cy3 and Cy5 separately. The signal was quantified with Array Vision 4.0 or 6.0 software (Imaging Research, St. Catherines, Ontario, Canada). […] P-values were calculated on log-transformed, normalized intensities. Including the p-value criterion ensures the reliability of the induced/repressed gene list. Normalization was relative to the median total fluorescent intensity per slide per channel. Example 3 was repeated, except asiatic acid ([…]) was added instead of ursolic acid.

C[C@H]1[C@H](C)CC[C@]2(C(=O)O)CC[C@]3(C)C(=CC[C@@H]4[C@@]5(C)C[C@@H](O)[C@H](O)[C@@](C)(CO)[C@@H]5CC[C@]43C)[C@H]12 [asiatic acid]
inhibition at 5 µg/mL (E. coli JM109; 5 μg/ml): ~75%
inhibition at 10 µg/mL (E. coli JM109; 10 μg/ml): ~80%
inhibition at 15 µg/mL (E. coli JM109; 15 μg/ml): ~85%
ER (expression ratio) gene b0829 (E. coli JM109 genes; 10 μg/mL asiatic acid): 2.83
ER (expression ratio) gene b1729 (E. coli JM109 genes; 10 μg/mL asiatic acid): 2.64
ER (expression ratio) gene b1963 (E. coli JM109 genes; 10 μg/mL asiatic acid): 2.14
ER (expression ratio) gene b2332 (E. coli JM109 genes; 10 μg/mL asiatic acid): 2.14
ER (expression ratio) gene b2420 (E. coli JM109 genes; 10 μg/mL asiatic acid): 4.29
ER (expression ratio) gene b2531 (E. coli JM109 genes; 10 μg/mL asiatic acid): 2.46
ER (expression ratio) gene b2670 (E. coli JM109 genes; 10 μg/mL asiatic acid): 3.25
ER (expression ratio) gene b2834 (E. coli JM109 genes; 10 μg/mL asiatic acid): 2.30
ER (expression ratio) gene bolA (E. coli JM109 genes; 10 μg/mL asiatic acid): 2.30
ER (expression ratio) gene cbl (E. coli JM109 genes; 10 μg/mL asiatic acid): 13.93
ER (expression ratio) gene cysA (E. coli JM109 genes; 10 μg/mL asiatic acid): 4.00
ER (expression ratio) gene cysB (E. coli JM109 genes; 10 μg/mL asiatic acid): 6.06
ER (expression ratio) gene cysC (E. coli JM109 genes; 10 μg/mL asiatic acid): 10.56
ER (expression ratio) gene cysD (E. coli JM109 genes; 10 μg/mL asiatic acid): 6.96
ER (expression ratio) gene cysH (E. coli JM109 genes; 10 μg/mL asiatic acid): 4.59
ER (expression ratio) gene cysI (E. coli JM109 genes; 10 μg/mL asiatic acid): 4.29
ER (expression ratio) gene cysJ (E. coli JM109 genes; 10 μg/mL asiatic acid): 3.73
ER (expression ratio) gene cysK (E. coli JM109 genes; 10 μg/mL asiatic acid): 4.59
ER (expression ratio) gene cysM (E. coli JM109 genes; 10 μg/mL asiatic acid): 3.73
ER (expression ratio) gene cysN (E. coli JM109 genes; 10 μg/mL asiatic acid): 11.31
ER (expression ratio) gene cysP (E. coli JM109 genes; 10 μg/mL asiatic acid): 4.29
ER (expression ratio) gene cysU (E. coli JM109 genes; 10 μg/mL asiatic acid): 4.92
ER (expression ratio) gene cysW (E. coli JM109 genes; 10 μg/mL asiatic acid): 4.59
ER (expression ratio) gene dgt (E. coli JM109 genes; 10 μg/mL asiatic acid): 2.14
ER (expression ratio) gene fliY (E. coli JM109 genes; 10 μg/mL asiatic acid): 4.00
ER (expression ratio) gene ftn (E. coli JM109 genes; 10 μg/mL asiatic acid): 3.25
ER (expression ratio) gene glgS (E. coli JM109 genes; 10 μg/mL asiatic acid): 2.14
ER (expression ratio) gene iIvG_1 (E. coli JM109 genes; 10 μg/mL asiatic acid): 2.83
ER (expression ratio) gene iIvL (E. coli JM109 genes; 10 μg/mL asiatic acid): 2.30
ER (expression ratio) gene msrA (E. coli JM109 genes; 10 μg/mL asiatic acid): 2.30
ER (expression ratio) gene nlpA (E. coli JM109 genes; 10 μg/mL asiatic acid): 18.38
ER (expression ratio) gene pssR (E. coli JM109 genes; 10 μg/mL asiatic acid): 2.46
ER (expression ratio) gene pstS (E. coli JM109 genes; 10 μg/mL asiatic acid): 2.64
ER (expression ratio) gene sbp (E. coli JM109 genes; 10 μg/mL asiatic acid): 18.38
ER (expression ratio) gene tauA (E. coli JM109 genes; 10 μg/mL asiatic acid): 2.46
ER (expression ratio) gene yaeG (E. coli JM109 genes; 10 μg/mL asiatic acid): 4.59
ER (expression ratio) gene yaiB (E. coli JM109 genes; 10 μg/mL asiatic acid): 2.30
ER (expression ratio) gene ybgR (E. coli JM109 genes; 10 μg/mL asiatic acid): 2.46
ER (expression ratio) gene ybiK (E. coli JM109 genes; 10 μg/mL asiatic acid): 6.50
ER (expression ratio) gene yciW (E. coli JM109 genes; 10 μg/mL asiatic acid): 3.03
ER (expression ratio) gene yedO (E. coli JM109 genes; 10 μg/mL asiatic acid): 3.73
ER (expression ratio) gene yeeD (E. coli JM109 genes; 10 μg/mL asiatic acid): 3.73
ER (expression ratio) gene yeeE (E. coli JM109 genes; 10 μg/mL asiatic acid): 3.25
ER (expression ratio) gene ygbE (E. coli JM109 genes; 10 μg/mL asiatic acid): 6.96
ER (expression ratio) gene yicG (E. coli JM109 genes; 10 μg/mL asiatic acid): 2.83
ER (expression ratio) gene yicL (E. coli JM109 genes; 10 μg/mL asiatic acid): 6.50
ER (expression ratio) gene yjaE (E. coli JM109 genes; 10 μg/mL asiatic acid): 2.00
ER (expression ratio) gene yjiD (E. coli JM109 genes; 10 μg/mL asiatic acid): 7.46
ER (expression ratio) gene yrbL (E. coli JM109 genes; 10 μg/mL asiatic acid): 2.64
ER (expression ratio) gene b0829 (E. coli JM109 genes; 30 μg/mL asiatic acid): 2.46
ER (expression ratio) gene b1729 (E. coli JM109 genes; 30 μg/mL asiatic acid): 2.30
ER (expression ratio) gene b1963 (E. coli JM109 genes; 30 μg/mL asiatic acid): 2.30
ER (expression ratio) gene b2332 (E. coli JM109 genes; 30 μg/mL asiatic acid): 2.30
ER (expression ratio) gene b2420 (E. coli JM109 genes; 30 μg/mL asiatic acid): 2.14
ER (expression ratio) gene b2531 (E. coli JM109 genes; 30 μg/mL asiatic acid): 2.14
ER (expression ratio) gene b2670 (E. coli JM109 genes; 30 μg/mL asiatic acid): 2.64
ER (expression ratio) gene b2834 (E. coli JM109 genes; 30 μg/mL asiatic acid): 2.00
ER (expression ratio) gene bolA (E. coli JM109 genes; 30 μg/mL asiatic acid): 2.64
ER (expression ratio) gene cbl (E. coli JM109 genes; 30 μg/mL asiatic acid): 13.00
ER (expression ratio) gene cysA (E. coli JM109 genes; 30 μg/mL asiatic acid): 3.48
ER (expression ratio) gene cysB (E. coli JM109 genes; 30 μg/mL asiatic acid): 4.29
ER (expression ratio) gene cysC (E. coli JM109 genes; 30 μg/mL asiatic acid): 6.96
ER (expression ratio) gene cysD (E. coli JM109 genes; 30 μg/mL asiatic acid): 6.50
ER (expression ratio) gene cysH (E. coli JM109 genes; 30 μg/mL asiatic acid): 3.03
ER (expression ratio) gene cysI (E. coli JM109 genes; 30 μg/mL asiatic acid): 3.25
ER (expression ratio) gene cysJ (E. coli JM109 genes; 30 μg/mL asiatic acid): 4.00
ER (expression ratio) gene cysK (E. coli JM109 genes; 30 μg/mL asiatic acid): 3.48
ER (expression ratio) gene cysM (E. coli JM109 genes; 30 μg/mL asiatic acid): 3.25
ER (expression ratio) gene cysN (E. coli JM109 genes; 30 μg/mL asiatic acid): 7.46
ER (expression ratio) gene cysP (E. coli JM109 genes; 30 μg/mL asiatic acid): 4.92
ER (expression ratio) gene cysU (E. coli JM109 genes; 30 μg/mL asiatic acid): 4.92
ER (expression ratio) gene cysW (E. coli JM109 genes; 30 μg/mL asiatic acid): 4.00
ER (expression ratio) gene dgt (E. coli JM109 genes; 30 μg/mL asiatic acid): 2.30
ER (expression ratio) gene fliY (E. coli JM109 genes; 30 μg/mL asiatic acid): 3.25
ER (expression ratio) gene ftn (E. coli JM109 genes; 30 μg/mL asiatic acid): 3.03
ER (expression ratio) gene glgS (E. coli JM109 genes; 30 μg/mL asiatic acid): 2.30
ER (expression ratio) gene iIvG_1 (E. coli JM109 genes; 30 μg/mL asiatic acid): 2.00
ER (expression ratio) gene iIvL (E. coli JM109 genes; 30 μg/mL asiatic acid): 3.48
ER (expression ratio) gene msrA (E. coli JM109 genes; 30 μg/mL asiatic acid): 2.64
ER (expression ratio) gene nlpA (E. coli JM109 genes; 30 μg/mL asiatic acid): 9.85
ER (expression ratio) gene pssR (E. coli JM109 genes; 30 μg/mL asiatic acid): 2.14
ER (expression ratio) gene pstS (E. coli JM109 genes; 30 μg/mL asiatic acid): 2.00
ER (expression ratio) gene sbp (E. coli JM109 genes; 30 μg/mL asiatic acid): 12.13
ER (expression ratio) gene tauA (E. coli JM109 genes; 30 μg/mL asiatic acid): 2.00
ER (expression ratio) gene yaeG (E. coli JM109 genes; 30 μg/mL asiatic acid): 4.00
ER (expression ratio) gene yaiB (E. coli JM109 genes; 30 μg/mL asiatic acid): 2.64
ER (expression ratio) gene ybgR (E. coli JM109 genes; 30 μg/mL asiatic acid): 2.46
ER (expression ratio) gene ybiK (E. coli JM109 genes; 30 μg/mL asiatic acid): 5.66
ER (expression ratio) gene yciW (E. coli JM109 genes; 30 μg/mL asiatic acid): 3.73
ER (expression ratio) gene yedO (E. coli JM109 genes; 30 μg/mL asiatic acid): 2.83
ER (expression ratio) gene yeeD (E. coli JM109 genes; 30 μg/mL asiatic acid): 2.30
ER (expression ratio) gene yeeE (E. coli JM109 genes; 30 μg/mL asiatic acid): 2.14
ER (expression ratio) gene ygbE (E. coli JM109 genes; 30 μg/mL asiatic acid): 5.28
ER (expression ratio) gene yicG (E. coli JM109 genes; 30 μg/mL asiatic acid): 2.30
ER (expression ratio) gene yicL (E. coli JM109 genes; 30 μg/mL asiatic acid): 2.83
ER (expression ratio) gene yjaE (E. coli JM109 genes; 30 μg/mL asiatic acid): 2.14
ER (expression ratio) gene yjiD (E. coli JM109 genes; 30 μg/mL asiatic acid): 9.85
ER (expression ratio) gene yrbL (E. coli JM109 genes; 30 μg/mL asiatic acid): 2.46
